Data taken from ChEMBL document CHEMBL1131038, “Derivatives of the triazoloquinazoline adenosine antagonist (CGS 15943) having high potency at the human A2B and A3 receptor subtypes” (J Med Chem, 1998).

Tests used:
[1] = Ratio against rat A1 receptor and Human A3 receptor
Adenosine receptor A2a = Adenosine receptor A2a (Rattus norvegicus, UniProt P30543); test: Binding affinity was determined in radioligand binding assay at rat striatal Adenosine A2A receptor vs [3H]-CGS- 21680
[2] = Ratio against rat A2A receptor and Human A3 receptor
Adenosine receptor A2b [3] = target: T1, Adenosine receptor A2b (Homo sapiens, UniProt P29275); test: Inhibition of 50 uM 5`-(N-ethylcarboxamido)adenosine induced cAMP production in CHO cell line expressing human Adenosine A2B receptor; format: cell-based
T1 sequence (P29275 whole entry): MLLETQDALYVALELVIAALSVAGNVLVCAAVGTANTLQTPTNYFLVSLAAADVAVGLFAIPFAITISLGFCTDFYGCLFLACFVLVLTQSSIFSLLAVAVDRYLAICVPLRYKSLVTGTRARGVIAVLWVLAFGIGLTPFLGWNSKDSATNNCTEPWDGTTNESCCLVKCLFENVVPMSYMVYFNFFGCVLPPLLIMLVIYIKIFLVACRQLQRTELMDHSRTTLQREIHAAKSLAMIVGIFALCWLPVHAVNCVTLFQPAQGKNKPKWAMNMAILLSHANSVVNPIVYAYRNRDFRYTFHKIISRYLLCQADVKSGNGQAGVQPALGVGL

Adenosine receptor A1 = target: T2, Adenosine receptor A1 (Rattus norvegicus, UniProt P25099)
T2 sequence (P25099 whole entry): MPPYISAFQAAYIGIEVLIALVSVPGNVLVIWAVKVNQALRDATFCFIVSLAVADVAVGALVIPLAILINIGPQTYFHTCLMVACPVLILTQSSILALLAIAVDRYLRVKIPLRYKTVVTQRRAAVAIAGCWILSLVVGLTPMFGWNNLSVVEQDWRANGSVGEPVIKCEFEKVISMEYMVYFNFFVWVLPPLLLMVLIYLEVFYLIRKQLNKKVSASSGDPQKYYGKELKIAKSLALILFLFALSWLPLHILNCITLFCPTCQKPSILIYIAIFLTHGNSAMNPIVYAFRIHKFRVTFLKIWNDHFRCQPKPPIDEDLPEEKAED
Description: Binding affinity was determined in radioligand binding assay at rat brain adenosine A1 receptor vs [3H]R-PIA

[4] = target: T3, Adenosine receptor A2b (Homo sapiens) (UniProt P29275); test: Inhibition at 50 uM on cAMP production induced by 50 uM 5`-(N-ethylcarboxamido)adenosine in CHO cell line transfected with human Adenosine A2B receptor cDNA; format: cell-based
T3 sequence (whole entry): T1 sequence (P29275 whole entry)

Adenosine receptor A2b [5] = target: T1, Adenosine receptor A2b; test: pA2 value at human Adenosine A2B receptor from Schild plots with slopes approaching unity; conditions: read-out: pA2 (converted)
Adenosine receptor A3 = target: T4, Adenosine receptor A3 (Homo sapiens, UniProt P0DMS8); test: biochemical
T4 sequence (P0DMS8 whole entry): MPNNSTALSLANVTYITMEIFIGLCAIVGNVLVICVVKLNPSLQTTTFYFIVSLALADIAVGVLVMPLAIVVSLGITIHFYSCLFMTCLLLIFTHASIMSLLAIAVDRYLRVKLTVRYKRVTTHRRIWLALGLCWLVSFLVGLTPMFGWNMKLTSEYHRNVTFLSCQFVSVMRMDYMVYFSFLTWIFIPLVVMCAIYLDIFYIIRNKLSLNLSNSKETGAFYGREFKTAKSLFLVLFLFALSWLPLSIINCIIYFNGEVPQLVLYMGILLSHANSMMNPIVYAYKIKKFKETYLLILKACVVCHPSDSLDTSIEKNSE
Description: Binding affinity at cloned human adenosine A3 receptor expressed in HEK293 cells was determined using [125I]AB-MECA as radioligand

Adenosine receptor A2b [6] = target: T1, Adenosine receptor A2b; test: Inhibition of 50 uM 5`-(N-ethylcarboxamido)adenosine induced cAMP production in CHO cell line expressing human Adenosine A2B receptor at 50 uM; format: functional, cell-based

Sequence of Adenosine receptor A2a (P30543 whole entry): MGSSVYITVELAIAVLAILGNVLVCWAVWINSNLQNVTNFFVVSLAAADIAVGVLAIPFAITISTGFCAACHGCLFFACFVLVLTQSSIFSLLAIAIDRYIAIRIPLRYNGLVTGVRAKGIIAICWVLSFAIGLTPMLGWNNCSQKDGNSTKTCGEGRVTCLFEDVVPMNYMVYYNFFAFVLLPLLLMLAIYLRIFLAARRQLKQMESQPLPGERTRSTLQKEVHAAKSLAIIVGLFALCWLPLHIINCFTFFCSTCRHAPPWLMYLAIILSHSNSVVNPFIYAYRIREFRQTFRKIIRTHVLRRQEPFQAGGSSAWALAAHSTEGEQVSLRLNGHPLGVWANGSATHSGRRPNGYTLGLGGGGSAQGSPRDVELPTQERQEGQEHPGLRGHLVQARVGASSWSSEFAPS

| SMILES | Selectivity ratio [1] | Ki (Adenosine receptor A2a) | Selectivity ratio [2] | IC50 (Adenosine receptor A2b [3]) | Ki (Adenosine receptor A1) | inhibition [4] | Kb (Adenosine receptor A2b [5]) | Ki (Adenosine receptor A3) | IC50 (Adenosine receptor A2b [6]) |
| --- | --- | --- | --- | --- | --- | --- | --- | --- | --- |
| NCCCC(=O)Nc1nc2ccc(Cl)cc2c2nc(-c3ccco3)nn12 | 0.11 | 1.38 nM | 0.017 | 270 nM | 8.75 nM | 100% | 10 nM | – | – |
| O=C(O)CCCC(=O)Nc1nc2ccc(Cl)cc2c2nc(-c3ccco3)nn12 | 0.55 | 1.15 nM | 0.014 | – | 45 nM | – | – | 81.3 nM | 1900 nM |
